How the values were obtained:
[1] = target: T1, CtBP2-p300^BRD interaction (Mus musculus, UniProt B2RWS6+P56546); experiment: In vitro pulldown assay with His-CtBP2 and GST-p300^BRD; assay type: binding; settings: PNSC928 0, 11.8, 23.6, and 47.2 µM; 80 nM GST-p300^BRD and 40 nM His-CtBP2
T1 construct: R1 (1-1000 amino acids, aa), R2 (1001–1201 aa), R3 (1202–1810 aa); made in house; host or cells: E. coli BL21
Procedure: Fig. 4 Identification of PNSC928 and determination of its in vitro and in vivo effects on disruption of CtBP2-p300 interaction. (A) A schematic representation illustrating four regions of the p300 amino acid sequence. (B) Co-IP results. Different combinations of plasmids were cotransfected into MPAEpiC cells. After a 48-hour incubation, cells were lysed and used for immunoprecipitation with anti-Flag agarose. The input and output proteins were probed with anti-Flag and anti-Myc antibodies. n = 3. (C) A schematic representation illustrating the in vitro AlphaScreen setup. (D) AlphaScreen signals for different concentrations of His-CtBP2 and GST-p300^BRD. (E) Chemical structure of PNSC928. (F) IC50 of PNSC928 disrupting CtBP2-p300^BRD interaction. (G and H) In vitro pulldown assay in a reaction consisting of His-CtBP2, GST-p300^BRD, and incremental concentrations of PNSC928 (0, 11.8, 23.6, and 47.2 µM). (G) Pulldown with Ni-NTA beads; (H) Pulldown with GST beads.
To probe this interaction, we established an AlphaScreen system that utilized GST-p300^BRD and His-CtBP2, binding to donor and acceptor beads, respectively (Fig. 4C). […] In vitro assays assessed the effects of PNSC928 on the CtBP2-p300^BRD interaction. […] Furthermore, we assessed the impact of combined LPS and PNSC928 treatment on the expression of key molecules in the NF-κB signaling pathway.

[2] = tested on: NF-κB signaling pathway; experiment: Immunoblots of NF-κB signaling pathway molecules in LPS-treated MPAEpiC cells; assay type: cell-based, mouse; settings: LPS 200 ng/mL + PNSC928 0, 23.6, and 47.2 µM, 6 h
Procedure: For LPS treatment, different knockdown (KD) cell lines—Control^KD, CtBP2^KD, p300^KD, and p65^KD, all derived from MPAEpiC—were seeded in 12-well plates and cultured at 37 °C until reaching 80% confluence. The cells were then treated with 200 ng/mL of LPS for 6 h, washed three times with PBS, and subjected to the required experiments. For experiments involving inhibitors of CtBP2, p300, and NF-κB, as well as the compound PNSC928, MPAEpiC, RAW264.7, FL83B, TKPTS, and HL-1 cells were seeded in 12-well plates and cultured at 37 °C to reach 80% confluence. Cells were then cotreated with 200 ng/mL LPS along with varying concentrations of the following chemicals: MTOB (0, 5, 10, or 20 mM), NSC95397 (0, 10, 20, or 40 µM), C646 (0, 3, 6, or 12 µM), A-485 (0, 5, 10, or 20 nM), TPCA1 (0, 150, 300, or 600 nM), BOT64 (0, 1, 2, or 4 µM), or PNSC928 (0, 11.8, 23.6, or 47.2 µM). After 6 h of treatment, cells were washed three times with PBS before proceeding with further experiments.
Cellular and mouse lung tissue lysates were prepared using the RIPA buffer (Thermo Fisher; #PI89900) supplemented with 1 × complete protease inhibitor cocktail (Thermo Fisher; #87,785). Following a 10-minute centrifugation at 13,000 g, proteins (50 µg) from the cleared lysate were resolved via 10% SDS-PAGE. These separated proteins were electroblotted onto PVDF membranes (Thermo Fisher; #88,585). […]

T1 sequence (B2RWS6 1001-1201 limits assumed): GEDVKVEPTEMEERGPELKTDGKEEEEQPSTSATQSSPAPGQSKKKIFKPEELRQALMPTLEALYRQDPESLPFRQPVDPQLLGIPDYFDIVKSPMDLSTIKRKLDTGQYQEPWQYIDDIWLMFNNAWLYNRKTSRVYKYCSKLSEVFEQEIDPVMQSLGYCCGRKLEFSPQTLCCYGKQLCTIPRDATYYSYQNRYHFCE
T1 sequence (P56546 whole entry, the tested form may be a part): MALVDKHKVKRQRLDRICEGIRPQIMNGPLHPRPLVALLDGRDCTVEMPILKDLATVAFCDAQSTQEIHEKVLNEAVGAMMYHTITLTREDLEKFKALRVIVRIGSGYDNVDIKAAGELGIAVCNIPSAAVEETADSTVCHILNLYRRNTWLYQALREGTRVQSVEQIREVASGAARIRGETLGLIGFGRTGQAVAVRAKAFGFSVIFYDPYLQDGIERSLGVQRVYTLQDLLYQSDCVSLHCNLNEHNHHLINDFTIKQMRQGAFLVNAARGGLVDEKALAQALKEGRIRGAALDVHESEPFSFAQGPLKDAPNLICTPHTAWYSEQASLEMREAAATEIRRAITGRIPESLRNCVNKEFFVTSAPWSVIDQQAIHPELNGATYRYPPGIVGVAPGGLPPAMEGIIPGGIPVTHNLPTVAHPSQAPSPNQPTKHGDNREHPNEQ

Compound: CC(=CCCC1=CCC(C2COC(=O)C2)OC1O)CCC1=C(C)CCCC1(C)C (centres unmarked) [PNSC928]
- Effect on CtBP2-p300^BRD interaction in pulldown assay [1]: disrupts the CtBP2-p300^BRD interaction in a dose-dependent manner
- Effect on LPS-induced pIKKα, pIκBα, IκBα levels and nuclear translocation of p65 and p50 [2]: did not alter the effects of LPS

Source: PMC11191317, “PNSC928, a plant-derived compound, specifically disrupts CtBP2-p300 interaction and reduces inflammation in mice with acute respiratory distress syndrome” (Biology Direct, 2024)
